Test results as given in US12673946B2, “Pyrimidin-4(3H)-one derivatives as TRPV4 antagonists” (RaQualia Pharma Inc., priority 2020, dated 2026).

Target: T1, human TRPV4 (Homo sapiens, UniProt Q9HBA0)
T1 construct: host or cells: tetracycline-inducible Flp-In T-REx 293 cells
Assay: Hypotonicity-induced Ca2+ influx (Fluo-4, FDSS)
Type: cell-based
How it was run: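 Flp-In T-REx 293 cells with tetracycline-induced human TRPV4, loaded with Fluo-4 for 60 min at 25 °C. Compound added 5 min before hypotonic mannitol/CaCl2 solution. Ca2+ signal recorded for 4.5 min on FDSS.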

[1] = Flp-In T-REx 293 cells expressing human TRPV4, examples listed under heading 'Human IC50<50 nM'
[2] = Flp-In T-REx 293 cells stably expressing human TRPV4, compounds listed by potency bin (<10 nM Tables 96-1/96-2, <3 nM Table 97)

T1 sequence (Q9HBA0 whole entry): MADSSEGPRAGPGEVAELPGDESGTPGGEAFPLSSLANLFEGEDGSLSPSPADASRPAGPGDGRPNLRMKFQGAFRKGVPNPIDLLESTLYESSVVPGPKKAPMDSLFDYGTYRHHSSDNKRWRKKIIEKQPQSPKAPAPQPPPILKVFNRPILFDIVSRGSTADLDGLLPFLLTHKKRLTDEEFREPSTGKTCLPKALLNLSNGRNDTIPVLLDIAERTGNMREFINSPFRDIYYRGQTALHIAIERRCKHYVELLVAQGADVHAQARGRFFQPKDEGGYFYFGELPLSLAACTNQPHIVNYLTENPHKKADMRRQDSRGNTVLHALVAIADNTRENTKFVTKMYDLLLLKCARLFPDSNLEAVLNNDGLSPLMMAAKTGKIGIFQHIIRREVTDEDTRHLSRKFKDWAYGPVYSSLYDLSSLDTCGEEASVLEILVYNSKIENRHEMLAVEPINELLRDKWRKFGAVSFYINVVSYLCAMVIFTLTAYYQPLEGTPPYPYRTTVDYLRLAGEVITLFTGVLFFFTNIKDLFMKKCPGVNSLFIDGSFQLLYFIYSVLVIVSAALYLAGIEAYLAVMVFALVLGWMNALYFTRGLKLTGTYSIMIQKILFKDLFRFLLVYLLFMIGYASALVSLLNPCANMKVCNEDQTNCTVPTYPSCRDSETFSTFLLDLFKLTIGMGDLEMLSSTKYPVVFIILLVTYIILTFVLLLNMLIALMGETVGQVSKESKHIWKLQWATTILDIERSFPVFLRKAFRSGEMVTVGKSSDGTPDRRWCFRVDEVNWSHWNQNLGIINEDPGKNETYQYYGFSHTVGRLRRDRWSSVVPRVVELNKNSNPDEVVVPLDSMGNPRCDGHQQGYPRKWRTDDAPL

Row | SMILES | IC50 [1] | IC50 [2]
1 | CC(C)c1cncc(C2(c3nc4c(c(=O)[nH]3)CN(C(=O)[C@H](O)c3cccc(-c5ccnc(C(F)(F)F)c5)c3)CCC4)CC2)c1 [55-9] | < 50 nM | < 10 nM
2 | Cc1ccccc1-c1cccc(C2(c3nc4c(c(=O)[nH]3)CN(C(=O)[C@H](O)c3cccc(C(F)(F)F)c3)CCC4)CC2)c1 [42-60] | < 50 nM | < 10 nM
3 | O=C([C@H](O)c1cccc(-c2cccc(C(F)(F)F)n2)c1)N1CCc2nc(C3(c4ccccc4)CC3)[nH]c(=O)c2C1 [44-78] | < 50 nM | < 3 nM
4 | O=C(C(O)c1cccc(-c2ccnc(C(F)(F)F)c2)c1)N1CCc2nc(C3(c4ccccc4)CC3)[nH]c(=O)c2C1 (stereo not drawn) [44-17] | < 50 nM | < 10 nM
5 | CC(C)(C)c1cccc(CC(=O)N2CCCc3nc(C4(c5cccc(Cl)c5)CC4)[nH]c(=O)c3C2)c1 [17-141] | < 50 nM | < 10 nM
6 | CC(C)c1csc(C2(c3nc4c(c(=O)[nH]3)CN(C(=O)C(F)(F)c3cccc(Cl)c3)CC4)CC2)c1 [21-4] | < 50 nM | < 10 nM
7 | Cn1c(=O)oc2cc(-c3cccc(C4(c5nc6c(c(=O)[nH]5)CN(C(=O)[C@H](O)c5cccc(C(F)(F)F)c5)CCC6)CC4)c3)ccc21 [42-14] | < 50 nM | < 3 nM
8 | CC(C)c1cncc(C2(c3nc4c(c(=O)[nH]3)CN(C(=O)[C@H](O)c3cccc(-c5ccc(Cl)cc5)c3)CC4)CC2)c1 [47-4] | < 50 nM | < 10 nM
9 | Cn1ncc2c(-c3cccc(C4(c5nc6c(c(=O)[nH]5)CN(C(=O)[C@H](O)c5cccc(C(F)(F)F)c5)CCC6)CC4)c3)cccc21 [42-24] | < 50 nM | < 10 nM
10 | O=C(Cc1cccc(-c2cccc(C(F)(F)F)c2)c1)N1CCCc2nc(C3(c4cncc(-c5ccccc5)c4)CC3)[nH]c(=O)c2C1 [19-14] | < 50 nM | < 10 nM
11 | O=C([C@H](O)c1cccc(C(F)(F)F)c1)N1CCCc2nc(C3(c4cccc(C5=CCC(C(F)(F)F)CC5)c4)CC3)[nH]c(=O)c2C1 (stereo partly drawn) [42-35] | < 50 nM | < 10 nM
12 | O=C([C@H](O)c1cccc(-c2ccc(F)c(Cl)c2)c1)N1CCCc2nc(C3(c4ccccc4)CC3)[nH]c(=O)c2C1 [49-30] | < 50 nM | < 3 nM
13 | O=C(C(O)c1cccc(-c2cccc(C(F)(F)F)c2)c1)N1CCc2nc(C3(c4cccc(F)c4)CC3)[nH]c(=O)c2C1 (stereo not drawn) [14-6] | < 50 nM | < 10 nM
14 | CN(Cc1ccc2ccccc2c1)C(=O)c1csc(C2(c3nc4c(c(=O)[nH]3)CN(C(=O)[C@H](O)c3cccc(C(F)(F)F)c3)CCC4)CC2)c1 [59-17] | < 50 nM | < 10 nM
15 | O=C(Cc1cccc(-c2cccc(C(F)(F)F)c2)c1)N1CCc2nc(C3(c4cccc(Cl)c4)CC3)[nH]c(=O)c2C1 [14-122] | < 50 nM | < 10 nM
16 | CC(C)Oc1cccc(-c2cccc([C@@H](O)C(=O)N3CCc4nc(C5(c6ccccc6)CC5)[nH]c(=O)c4C3)c2)c1 [44-104] | < 50 nM | < 3 nM
17 | O=C([C@H](O)c1cccc(C(F)(F)F)c1)N1CCCc2nc(C3(c4cccc(-c5cnsc5)c4)CC3)[nH]c(=O)c2C1 [42-1] | < 50 nM | < 3 nM
18 | O=C(C(O)c1cccc(-c2cnc3ccccc3c2)c1)N1CCCc2nc(C3(c4ccccc4)CC3)[nH]c(=O)c2C1 (stereo not drawn) [49-1] | < 50 nM | < 10 nM
19 | O=C(C(F)c1ccccc1)N1CCc2nc(C3(c4ccccc4)CC3)[nH]c(=O)c2C1 (stereo not drawn) [2-21] | < 50 nM | 
20 | CC(C)(C)c1cccc(-c2cccc([C@@H](O)C(=O)N3CCCc4nc(C5(c6cccc(C7CCCCC7)c6)CC5)[nH]c(=O)c4C3)c2)c1 [52-5] | < 50 nM | < 10 nM
21 | O=C([C@H](O)c1cccc(-c2ccc(OCc3ccccc3)nc2)c1)N1CCCc2nc(C3(c4ccccc4)CC3)[nH]c(=O)c2C1 [49-38] | < 50 nM | < 3 nM
22 | CC(C)(C)c1cccc(-c2cccc([C@@H](O)C(=O)N3CCCc4nc(C5(c6ccccc6)CC5)[nH]c(=O)c4C3)c2)c1 [49-16] | < 50 nM | < 3 nM
23 | O=C([C@H](O)c1cccc(C(F)(F)F)c1)N1CCCc2nc(C3(c4cccc(C5=CCN(S(=O)(=O)C6CCCCC6)CC5)c4)CC3)[nH]c(=O)c2C1 [42-76] | < 50 nM | < 10 nM

Continued, values first:

Row | IC50 [1] | IC50 [2] | SMILES
24 | < 50 nM | < 3 nM | O=C(N1CCCc2nc(C3(c4cccs4)CC3)[nH]c(=O)c2C1)C(F)(F)c1cccc(C(F)(F)F)c1 [21-1]
25 | < 50 nM | < 10 nM | O=C(Cc1cccc(-c2ccc(OC(F)(F)F)cc2)c1)N1CCCc2nc(C3(c4cccc(Cl)c4)CC3)[nH]c(=O)c2C1 [17-129]
26 | < 50 nM | < 3 nM | O=C([C@H](O)c1cccc(Cl)c1)N1CCCc2nc(C3(c4cccc(-c5coc6ccccc56)c4)CC3)[nH]c(=O)c2C1 [40-19]
27 | < 50 nM |  | CC(C)N(C)C(=O)c1csc(C2(c3nc4c(c(=O)[nH]3)CN(C(=O)[C@H](O)c3cccc(C(F)(F)F)c3)CCC4)CC2)c1 [59-5]
28 | < 50 nM | < 10 nM | CNc1ccc(-c2cccc(C3(c4nc5c(c(=O)[nH]4)CN(C(=O)[C@H](O)c4cccc(C(F)(F)F)c4)CCC5)CC3)c2)cn1 [42-54]
29 | < 50 nM | < 3 nM | O=C([C@H](O)c1cccc(-c2cccc(C3CC3)c2)c1)N1CCCc2nc(C3(c4cccs4)CC3)[nH]c(=O)c2C1 [53-6]
30 | < 50 nM |  | O=C([C@H](O)c1cccc(Cl)c1)N1CCc2nc(C3(c4ccc(Cl)cc4)CC3)[nH]c(=O)c2C1 [3-21]
31 | < 50 nM | < 3 nM | O=C([C@H](O)c1cccc(C(F)(F)F)c1)N1CCCc2nc(C3(c4cccc(C5CCC(F)(F)CC5)c4)CC3)[nH]c(=O)c2C1 [31-2]
32 | < 50 nM |  | O=C(C(O)c1cccc(-c2cc(F)ccc2Cl)c1)N1CCc2nc(C3(c4ccccc4)CC3)[nH]c(=O)c2C1 (stereo not drawn) [44-28]
33 | < 50 nM | < 10 nM | O=C([C@H](O)c1cccc(C(F)(F)F)c1)N1CCCc2nc(C3(c4cccc(C5=CCN(C(=O)C6(C(F)(F)F)CC6)CC5)c4)CC3)[nH]c(=O)c2C1 [42-72]
34 | < 50 nM | < 3 nM | O=C([C@H](O)c1cccc(-c2cc(F)cc(Cl)c2)c1)N1CCCc2nc(C3(c4ccccc4)CC3)[nH]c(=O)c2C1 [49-27]
35 | < 50 nM | < 10 nM | O=C(N1CCCc2nc(C3(c4cccs4)CC3)[nH]c(=O)c2C1)C(F)(F)c1cccc(Cl)c1 [21-2]
36 | < 50 nM | < 10 nM | CC(C)c1csc(C2(c3nc4c(c(=O)[nH]3)CN(C(=O)[C@H](O)c3cccc(Cl)c3)CC4)CC2)c1 [15-8]
37 | < 50 nM | < 10 nM | O=C([C@H](O)c1cccc(-c2cc(Cl)cc(C(F)(F)F)c2)c1)N1CCc2nc(C3(c4ccccc4)CC3)[nH]c(=O)c2C1 [44-99]
38 | < 50 nM |  | CC(C)c1cncc(C2(c3nc4c(c(=O)[nH]3)CN(C(=O)C(O)c3cccc(C(F)(F)F)c3F)CCC4)CC2)c1 (stereo not drawn) [19-7]
39 | < 50 nM | < 10 nM | O=C([C@H](O)c1cccc(Br)c1)N1CCCc2nc(C3(c4ccccc4)CC3)[nH]c(=O)c2C1 [17-77]

Row | IC50 [1] | IC50 [2] | SMILES
40 | < 50 nM | < 3 nM | O=C([C@H](O)c1cccc(Cl)c1)N1CCc2nc(C3(c4cncc(-c5ccccc5)c4)CC3)[nH]c(=O)c2C1 [16-1]
41 | < 50 nM | < 10 nM | O=C(Cc1cccc(-c2ccc(C(F)(F)F)cc2)c1)N1CCCc2nc(C3(c4ccccc4)CC3)[nH]c(=O)c2C1 [17-133]
42 | < 50 nM |  | O=C(C(O)c1cccc(-c2cccc(F)c2)c1)N1CCc2nc(C3(c4ccccc4)CC3)[nH]c(=O)c2C1 (stereo not drawn) [44-47]
43 | < 50 nM | < 10 nM | O=C([C@H](O)c1cccc(-c2cccc(OCc3ccccc3)c2)c1)N1CCCc2nc(C3(c4cccc(Cl)c4)CC3)[nH]c(=O)c2C1 [50-12]
44 | < 50 nM | < 3 nM | O=C([C@H](O)c1cccc(C(F)(F)F)c1)N1CCCc2nc(C3(c4cccc(-c5cccnc5)c4)CC3)[nH]c(=O)c2C1 [42-8]
45 | < 50 nM |  | O=C(Cc1cccc(-c2ccc(C(F)(F)F)cc2)c1)N1CCc2nc(C3(c4cccc(Cl)c4)CC3)[nH]c(=O)c2C1 [14-117]
46 | < 50 nM | < 10 nM | CC(C)Oc1cccc(-c2cccc([C@@H](O)C(=O)N3CCCc4nc(C5(c6cccc(Cl)c6)CC5)[nH]c(=O)c4C3)c2)c1 [50-13]
47 | < 50 nM | < 10 nM | O=C(Cc1cccc(-c2cccc(C(F)(F)F)c2)c1)N1CCCc2nc(C3(c4cccc(C5CCCCC5)c4)CC3)[nH]c(=O)c2C1 [31-14]
48 | < 50 nM | < 10 nM | O=C([C@H](O)c1cccc(-c2cccc(C(F)(F)F)c2)c1)N1CCCc2nc(C3(c4cncc(C5CCCCC5)c4)CC3)[nH]c(=O)c2C1 [55-14]
49 | < 50 nM |  | CC(C)(C)c1ccc(-c2cccc(CC(=O)N3CCc4nc(C5(c6cccc(Cl)c6)CC5)[nH]c(=O)c4C3)c2)cc1 [14-116]
50 | < 50 nM | < 10 nM | CC(C)c1cccc(C2(c3nc4c(c(=O)[nH]3)CN(C(=O)C(O)c3cccc(C(C)(C)C)c3)CC4)CC2)c1 (stereo not drawn) [14-107]
51 | < 50 nM | < 3 nM | COc1ccc(C(=O)N2CC=C(c3cccc(C4(c5nc6c(c(=O)[nH]5)CN(C(=O)[C@H](O)c5cccc(C(F)(F)F)c5)CCC6)CC4)c3)CC2)cc1OC1CCCC1 [42-82]
52 | < 50 nM | < 10 nM | CC(C)(C)c1cccc(-c2cccc(CC(=O)N3CCc4nc(C5(c6cccc(Cl)c6)CC5)[nH]c(=O)c4C3)c2)c1 [45-13]
53 | < 50 nM | < 10 nM | CC(C)c1csc(C2(c3nc4c(c(=O)[nH]3)CN(C(=O)C(O)c3cccc(-c5cccc(C(F)(F)F)c5)c3)CCC4)CC2)c1 (stereo not drawn) [18-21]
54 | < 50 nM | < 3 nM | O=C([C@H](O)c1cccc(-c2coc3ccccc23)c1)N1CCCc2nc(C3(c4ccccc4)CC3)[nH]c(=O)c2C1 [49-46]
55 | < 50 nM | < 3 nM | O=C([C@H](O)c1cccc(-c2ccc(Cl)cc2)c1)N1CCCc2nc(C3(c4ccccc4)CC3)[nH]c(=O)c2C1 [49-18]
